Data published in publication PMC5386672, “Structure-guided design of purine-based probes for selective Nek2 inhibition” (Oncotarget, 2016).

Key:
Nek2 = molecular target: T1, Nek2 (Homo sapiens, UniProt P51955); assay: Nek2 Caliper kinase inhibition assay; format: biochemical; conditions: 30 μM ATP; for IC50: Caliper assay; for inhibition at 50 µM: @ 50 μM compound
T1 construct: purchased Invitrogen
T1 sequence (P51955 1-445): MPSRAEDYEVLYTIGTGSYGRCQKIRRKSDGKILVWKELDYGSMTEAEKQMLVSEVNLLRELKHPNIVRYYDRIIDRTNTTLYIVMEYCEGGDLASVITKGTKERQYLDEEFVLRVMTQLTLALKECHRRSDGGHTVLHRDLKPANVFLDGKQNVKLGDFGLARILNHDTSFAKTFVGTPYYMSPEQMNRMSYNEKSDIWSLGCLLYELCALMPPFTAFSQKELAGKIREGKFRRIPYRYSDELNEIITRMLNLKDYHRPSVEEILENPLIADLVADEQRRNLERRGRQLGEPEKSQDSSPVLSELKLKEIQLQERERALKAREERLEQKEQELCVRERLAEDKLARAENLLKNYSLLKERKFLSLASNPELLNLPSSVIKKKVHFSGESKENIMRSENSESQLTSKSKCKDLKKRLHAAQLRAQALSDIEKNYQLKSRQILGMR

CDK2 = CDK2 (Homo sapiens, UniProt P24941); assay: CDK2 kinase inhibition assay; format: biochemical; conditions: for IC50: 12.5 μM ATP; for selectivity for CDK2 over Nek2: from IC50 values

Row | SMILES | IC50 (Nek2) | melting point | IC50 (CDK2) | inhibition at 50 µM (Nek2) | selectivity for CDK2 over Nek2 (CDK2)
1 | CCC(C)Oc1nc(Nc2cccc(CC(=O)NCCCN(C)C)c2)nc2[nH]cnc12 (racemic) [Compound 60, (±)-2-[3-(6-sec-Butoxy-9H-purin-2-ylamino)phenyl]-N-(3-dimethylaminopropyl)acetamide] | 4.9 µM | 97 to 98 °C | 0.41 µM |  | 10 fold
2 | c1ccc(Nc2nc(OCC3CCCCC3)c3nc[nH]c3n2)cc1 [2-aminophenyl-6-(cyclohexylmethoxy)-9H-purine] | 22 µM |  |  |  | 
3 | NS(=O)(=O)c1ccc(Nc2nc(OCC3CCCCC3)c3nc[nH]c3n2)cc1 [Compound 6] | 12 µM |  |  |  | 
4 | CCOc1nc(Nc2cccc(CC(=O)NCCCN(C)C)c2)nc2[nH]cnc12 [Compound 7] | 0.89 µM |  | 5.6 µM |  | 
5 | CNC(=O)c1cccc(Nc2nc(OCC3CCCCC3)c3nc[nH]c3n2)c1 [Compound 10, 3-(6-Cyclohexylmethoxy-9H-purin-2-ylamino)-N-methylbenzamide] | 15 µM | 252 to 254 °C | 0.83 µM |  | 
6 | CN(C)C(=S)c1cccc(Nc2nc(OCC3CCCCC3)c3nc[nH]c3n2)c1 [Compound 12, 3-(6-Cyclohexylmethoxy-9H-purin-2-ylamino)-N,N-dimethylthiobenzamide] | 5.2 µM | 231 to 232 °C (dec.) | 5.7 µM |  | 
7 | NC(=S)c1cccc(Nc2nc(OCC3CCCCC3)c3nc[nH]c3n2)c1 [Compound 13, 3-(6-Cyclohexylmethoxy-9H-purin-2-ylamino)thiobenzamide] |  | 148 to 149 °C (dec.) | 0.33 µM | 46% | 
8 | CN(C)S(=O)(=O)c1cccc(Nc2nc(OCC3CCCCC3)c3nc[nH]c3n2)c1 [Compound 14, 3-(6-Cyclohexylmethoxy-9H-purin-2-ylamino)-N,N-dimethylbenzenesulfonamide] |  | 143 to 145 °C | 3.5 µM | 40% | 
9 | CNC(=O)Cc1cccc(Nc2nc(OCC3CCCCC3)c3nc[nH]c3n2)c1 [Compound 15] | 1.3 µM | 176 to 177 °C | 0.32 µM |  | 
10 | O=C(NCCN1CCOCC1)Nc1ccc(Nc2nc(OCC3CCCCC3)c3nc[nH]c3n2)cc1 [Compound 16, 1-(4-(6-(Cyclohexylmethoxy)-9H-purin-2-ylamino)phenyl)-3-(2-morpholinoethyl)urea] | 2.2 µM | 161 to 163 °C | 1.1 µM |  | 
11 | O=C(NCCN1CCCCC1)Nc1ccc(Nc2nc(OCC3CCCCC3)c3nc[nH]c3n2)cc1 [Compound 17, 1-(4-(6-(Cyclohexylmethoxy)-9H-purin-2-ylamino)phenyl)-3-(2-(piperidin-1-yl)ethyl)urea] | 1.1 µM |  | 0.86 µM |  | 
12 | CN(C)CCCNC(=O)Nc1ccc(Nc2nc(OCC3CCCCC3)c3nc[nH]c3n2)cc1 [Compound 18, 1-(4-(6-(Cyclohexylmethoxy)-9H-purin-2-ylamino)phenyl)-3-(3-(dimethylamino)propyl)urea] | 1.2 µM | 110 to 112 °C | 0.72 µM |  | 
13 | O=[N+]([O-])c1ccc(Nc2nc(OCC3CCCCC3)c3nc[nH]c3n2)cc1 [Compound 19, 6-(Cyclohexylmethoxy)-N-(4-nitrophenyl)-9H-purin-2-amine] | > 50 µM | 180 to 181 °C | 1.9 µM |  | 
14 | O=[N+]([O-])c1cccc(Nc2nc(OCC3CCCCC3)c3nc[nH]c3n2)c1 [Compound 20, 6-(Cyclohexylmethoxy)-N-(3-nitrophenyl)-9H-purin-2-amine] | > 50 µM | 217 to 218 °C | 0.89 µM |  | 
15 | Nc1ccc(Nc2nc(OCC3CCCCC3)c3[nH]cnc3n2)cc1 [Compound 21, 2-(4-Aminophenyl)amino-6-cyclohexylmethoxy-purine] | 6.3 µM | 228 to 230 °C | 0.22 µM |  | 
16 | Nc1cccc(Nc2nc(OCC3CCCCC3)c3[nH]cnc3n2)c1 [Compound 22, 2-(3-Aminophenyl)amino-6-cyclohexylmethoxy-purine] | 5.9 µM | 117 to 118 °C (dec.) | 0.7 µM |  | 
17 | O=C(O)c1cccc(Nc2nc(OCC3CCCCC3)c3nc[nH]c3n2)c1 [Compound 23, 3-(6-Cyclohexylmethoxy-9H-purin-2-ylamino)benzoic acid] | 4.3 µM | 182 to 184 °C (dec.) | 0.99 µM |  | 
18 | CC(=O)Nc1cccc(Nc2nc(OCC3CCCCC3)c3nc[nH]c3n2)c1 [Compound 27, N-(3-(6-(Cyclohexylmethoxy)-9H-purin-2-ylamino)phenyl)acetamide] | 8.3 µM |  | 0.88 µM |  | 

More lines, main results first:

Row | IC50 (Nek2) | melting point | IC50 (CDK2) | inhibition at 50 µM (Nek2) | SMILES | selectivity for CDK2 over Nek2 (CDK2)
19 | 24 µM |  | 9.7 µM |  | CC(C)(C)C(=O)Nc1ccc(Nc2nc(OCC3CCCCC3)c3nc[nH]c3n2)cc1 [Compound 28, N-(4-(6-(Cyclohexylmethoxy)-9H-purin-2-ylamino)phenyl)pivalamide] | 
20 |  |  | 2.9 µM | 36% | O=C(Nc1ccc(Nc2nc(OCC3CCCCC3)c3nc[nH]c3n2)cc1)c1ccccc1 [Compound 29, N-(4-(6-(Cyclohexylmethoxy)-9H-purin-2-ylamino)phenyl)benzamide] | 
21 |  | 248 to 250 °C (dec.) | 2.2 µM | 51% | O=C(Nc1ccc(Nc2nc(OCC3CCCCC3)c3nc[nH]c3n2)cc1)c1ccncc1 [Compound 30, N-[4-(6-Cyclohexylmethoxy-9H-purin-2-ylamino)phenyl]isonicotinamide] | 
22 | 3.6 µM | 193 to 194 °C | 0.38 µM |  | NC(=O)Nc1cccc(Nc2nc(OCC3CCCCC3)c3nc[nH]c3n2)c1 [Compound 31, 1-(3-(6-(Cyclohexylmethoxy)-9H-purin-2-ylamino)phenyl) urea] | 10 fold
23 |  | 133 to 135 °C | 18 µM | 57% | O=C(c1cccc(Nc2nc(OCC3CCCCC3)c3nc[nH]c3n2)c1)N1CCCCC1 [Compound 32, [3-(6-Cyclohexylmethoxy-9H-purin-2-ylamino)phenyl]piperidin-1-ylmethanone] | 
24 | 3.8 µM | 125 to 127 °C | 0.73 µM |  | CN(C)CCCCNC(=O)c1cccc(Nc2nc(OCC3CCCCC3)c3nc[nH]c3n2)c1 [Compound 33, 3-(6-Cyclohexylmethoxy-9H-purin-2-ylamino)-N-(4-dimethylaminobutyl)benzamide] | 
25 |  |  | 3.7 µM | 29% | CC(C)CCNC(=O)Cc1cccc(Nc2nc(OCC3CCCCC3)c3nc[nH]c3n2)c1 [Compound 44, 2-[3-(6-Cyclohexylmethoxy-9H-purin-2-ylamino)phenyl]-N-(3-methylbutyl)acetamide] | 
26 | 0.83 µM |  | 0.77 µM |  | CN(C)S(=O)(=O)Cc1cccc(Nc2nc(OCC3CCCCC3)c3nc[nH]c3n2)c1 [Compound 48, [3-(6-Cyclohexylmethoxy-9H-purin-2-ylamino)-phenyl]-N,N-dimethylmethanesulfonamide] | 
27 |  |  | 1.6 µM | 53% | O=S(=O)(Cc1cccc(Nc2nc(OCC3CCCCC3)c3nc[nH]c3n2)c1)N1CCCCC1 [Compound 49, 1-(3-(6-Cyclohexylmethoxy-9H-purin-2-ylamino)phenylmethanesulfonyl)piperidine] | 
28 |  | 178 to 179 °C |  |  | CCOc1nc(Nc2cccc(CC(=O)NCCCN(C)C)c2)nc2[nH]cnc12 [Compound 59, N-(3-Dimethylaminopropyl)-2-[3-(6-ethoxy-9H-purin-2-ylamino)phenyl]acetamide] | 
